Values of other authors, collected in patent US20260053764A1, “COMPOSITION FOR PREVENTING DETERIORATION IN COGNITIVE FUNCTION AND/OR IMPROVING COGNITIVE FUNCTION” (PHARMA FOODS INTERNATIONAL CO., LTD., priority 2020, published 2026).

Tested on: cognitive function of elderly people
Conditions: continuous ingestion for a year; cited from earlier work

CC1=C[C@H](O)CC(C)(C)[C@H]1/C=C/C(C)=C/C=C/C(C)=C/C=C/C=C(C)/C=C/C=C(C)/C=C/C1=C(C)C[C@@H](O)CC1(C)C [lutein]
reasoning measured by the CNS Vital Signs examination method: no improvement

CC1=C(/C=C/C(C)=C/C=C/C(C)=C/C=C/C=C(C)/C=C/C=C(C)/C=C/C2=C(C)C[C@@H](O)CC2(C)C)C(C)(C)C[C@H](O)C1 [zeaxanthin]
reasoning measured by the CNS Vital Signs examination method: no improvement
